Data as given in ChEMBL document CHEMBL3882388, “Pharmaceutical Compositions Comprising Beta-Lactam Antibiotic, Sulbactam and Beta-Lactamase Inhibitor” (2014).
Converted amounts (≈) assume the structure as drawn.

Experiments:
[1] = biological target: Beta-lactamase (Acinetobacter baumannii) (UniProt Q8RLA6); conditions: S-15
[2] = biological target: Beta-lactamase (Acinetobacter baumannii) (UniProt Q8RLA6); conditions: S-10
[3] = biological target: Beta-lactamase (Acinetobacter baumannii) (UniProt Q8RLA6); conditions: S-15; remark: listed apart in the source
[4] = biological target: Beta-lactamase (Acinetobacter baumannii) (UniProt Q8RLA6); assay: Inhibition of beta-lactamase in extended-spectrum b-lactamase producing Acinetobacter baumannii NCTC 13301 assessed as potentiation of cefpirome-induced antibacterial activity by measuring cefpirome MIC at 4 to 8 ug/ml incubated for 16 to 20 hrs by CLSI method
[5] = biological target: Beta-lactamase (Acinetobacter baumannii) (UniProt Q8RLA6); conditions: NCTC 13304
[6] = biological target: Beta-lactamase (Acinetobacter baumannii) (UniProt Q8RLA6); conditions: S-15; remark: listed apart in the source
[7] = biological target: Beta-lactamase (Acinetobacter baumannii) (UniProt Q8RLA6); conditions: S-15; remark: listed apart in the source
[8] = biological target: Beta-lactamase (Acinetobacter baumannii) (UniProt Q8RLA6); conditions: S-3
[9] = biological target: Beta-lactamase (Acinetobacter baumannii) (UniProt Q8RLA6); conditions: S-4
[10] = biological target: Beta-lactamase (Acinetobacter baumannii) (UniProt Q8RLA6); conditions: S-10; remark: listed apart in the source
[11] = biological target: Beta-lactamase (Acinetobacter baumannii) (UniProt Q8RLA6); conditions: S-3; remark: listed apart in the source
[12] = biological target: Beta-lactamase (Acinetobacter baumannii) (UniProt Q8RLA6); conditions: S-4; remark: listed apart in the source
[13] = biological target: Beta-lactamase (Acinetobacter baumannii) (UniProt Q8RLA6); conditions: NCTC 13304; remark: listed apart in the source
[14] = biological target: Beta-lactamase (Acinetobacter baumannii) (UniProt Q8RLA6); conditions: NCTC 13301
[15] = biological target: Beta-lactamase (Acinetobacter baumannii) (UniProt Q8RLA6); conditions: NCTC 13301; remark: listed apart in the source
[16] = biological target: Beta-lactamase (Acinetobacter baumannii) (UniProt Q8RLA6); conditions: S-10; remark: listed apart in the source
Acinetobacter baumannii [17] = assay: Antibacterial activity against extended-spectrum b-lactamase producing Acinetobacter baumannii S-10 incubated for 16 to 20 hrs by CLSI method; assay type: functional
[18] = biological target: Beta-lactamase (Acinetobacter baumannii) (UniProt Q8RLA6); conditions: S-10; remark: listed apart in the source
[19] = biological target: Beta-lactamase (Acinetobacter baumannii) (UniProt Q8RLA6); conditions: NCTC 13301; remark: listed apart in the source
[20] = biological target: Beta-lactamase (Acinetobacter baumannii) (UniProt Q8RLA6); assay: Inhibition of beta-lactamase in extended-spectrum b-lactamase producing Acinetobacter baumannii S-4 assessed as potentiation of cefepime-induced antibacterial activity by measuring cefepime MIC at 4 to 8 ug/ml incubated for 16 to 20 hrs by CLSI method
[21] = biological target: Beta-lactamase (Acinetobacter baumannii) (UniProt Q8RLA6); assay: Inhibition of beta-lactamase in extended-spectrum b-lactamase producing Acinetobacter baumannii S-3 assessed as potentiation of cefepime-induced antibacterial activity by measuring cefepime MIC at 4 to 8 ug/ml incubated for 16 to 20 hrs by CLSI method
[22] = biological target: Beta-lactamase (Acinetobacter baumannii) (UniProt Q8RLA6); conditions: S-15; remark: listed apart in the source
[23] = biological target: Beta-lactamase (Acinetobacter baumannii) (UniProt Q8RLA6); assay: Inhibition of beta-lactamase in extended-spectrum b-lactamase producing Acinetobacter baumannii NCTC 13301 assessed as potentiation of cefepime-induced antibacterial activity by measuring cefepime MIC at 4 to 8 ug/ml incubated for 16 to 20 hrs by CLSI method
Acinetobacter baumannii [24] = assay: Antibacterial activity against extended-spectrum b-lactamase producing Acinetobacter baumannii NCTC 13305 incubated for 16 to 20 hrs by CLSI method; assay type: functional
Acinetobacter baumannii [25] = assay: Antibacterial activity against extended-spectrum b-lactamase producing Acinetobacter baumannii S-4 incubated for 16 to 20 hrs by CLSI method; assay type: functional
[26] = biological target: Beta-lactamase (Acinetobacter baumannii) (UniProt Q8RLA6); conditions: NCTC 13304; remark: listed apart in the source
[27] = biological target: Beta-lactamase (Acinetobacter baumannii) (UniProt Q8RLA6); conditions: NCTC 13301; remark: listed apart in the source
[28] = biological target: Beta-lactamase (Acinetobacter baumannii) (UniProt Q8RLA6); conditions: NCTC 13301; remark: listed apart in the source
[29] = biological target: Beta-lactamase (Acinetobacter baumannii) (UniProt Q8RLA6); conditions: S-4; remark: listed apart in the source
[30] = biological target: Beta-lactamase (Acinetobacter baumannii) (UniProt Q8RLA6); conditions: S-8
[31] = biological target: Beta-lactamase (Acinetobacter baumannii) (UniProt Q8RLA6); conditions: S-3; remark: listed apart in the source
[32] = biological target: Beta-lactamase (Acinetobacter baumannii) (UniProt Q8RLA6); conditions: S-4; remark: listed apart in the source
[33] = biological target: Beta-lactamase (Acinetobacter baumannii) (UniProt Q8RLA6); conditions: S-4; remark: listed apart in the source
[34] = biological target: Beta-lactamase (Acinetobacter baumannii) (UniProt Q8RLA6); conditions: S-10; remark: listed apart in the source
Acinetobacter baumannii [35] = assay: Antibacterial activity against extended-spectrum b-lactamase producing Acinetobacter baumannii S-8 incubated for 16 to 20 hrs by CLSI method; assay type: functional
[36] = biological target: Beta-lactamase (Acinetobacter baumannii) (UniProt Q8RLA6); conditions: NCTC 13305
[37] = biological target: Beta-lactamase (Acinetobacter baumannii) (UniProt Q8RLA6); conditions: S-8; remark: listed apart in the source
[38] = biological target: Beta-lactamase (Acinetobacter baumannii) (UniProt Q8RLA6); conditions: NCTC 13301; remark: listed apart in the source
[39] = biological target: Beta-lactamase (Acinetobacter baumannii) (UniProt Q8RLA6); conditions: NCTC 13304; remark: listed apart in the source
[40] = biological target: Beta-lactamase (Acinetobacter baumannii) (UniProt Q8RLA6); conditions: S-8; remark: listed apart in the source
[41] = biological target: Beta-lactamase (Acinetobacter baumannii) (UniProt Q8RLA6); assay: Inhibition of beta-lactamase in extended-spectrum b-lactamase producing Acinetobacter baumannii S-4 assessed as potentiation of cefpirome-induced antibacterial activity by measuring cefpirome MIC at 4 to 8 ug/ml incubated for 16 to 20 hrs by CLSI method
[42] = biological target: Beta-lactamase (Acinetobacter baumannii) (UniProt Q8RLA6); conditions: NCTC 13304; remark: listed apart in the source
[43] = biological target: Beta-lactamase (Acinetobacter baumannii) (UniProt Q8RLA6); conditions: S-3; remark: listed apart in the source
[44] = biological target: Beta-lactamase (Acinetobacter baumannii) (UniProt Q8RLA6); assay: Inhibition of beta-lactamase in extended-spectrum b-lactamase producing Acinetobacter baumannii S-3 assessed as potentiation of cefpirome-induced antibacterial activity by measuring cefpirome MIC at 4 to 8 ug/ml incubated for 16 to 20 hrs by CLSI method
[45] = biological target: Beta-lactamase (Acinetobacter baumannii) (UniProt Q8RLA6); conditions: NCTC 13305; remark: listed apart in the source
[46] = biological target: Beta-lactamase (Acinetobacter baumannii) (UniProt Q8RLA6); conditions: NCTC 13305; remark: listed apart in the source
[47] = biological target: Beta-lactamase (Acinetobacter baumannii) (UniProt Q8RLA6); conditions: S-8; remark: listed apart in the source
[48] = biological target: Beta-lactamase (Acinetobacter baumannii) (UniProt Q8RLA6); conditions: NCTC 13305; remark: listed apart in the source
[49] = biological target: Beta-lactamase (Acinetobacter baumannii) (UniProt Q8RLA6); conditions: S-4; remark: listed apart in the source
Acinetobacter baumannii [50] = assay: Antibacterial activity against extended-spectrum b-lactamase producing Acinetobacter baumannii S-15 incubated for 16 to 20 hrs by CLSI method; assay type: functional
[51] = biological target: Beta-lactamase (Acinetobacter baumannii) (UniProt Q8RLA6); conditions: NCTC 13304; remark: listed apart in the source
Acinetobacter baumannii [52] = assay: Antibacterial activity against extended-spectrum b-lactamase producing Acinetobacter baumannii NCTC 13304 incubated for 16 to 20 hrs by CLSI method; assay type: functional
[53] = biological target: Beta-lactamase (Acinetobacter baumannii) (UniProt Q8RLA6); conditions: S-8; remark: listed apart in the source
[54] = biological target: Beta-lactamase (Acinetobacter baumannii) (UniProt Q8RLA6); conditions: NCTC 13304; remark: listed apart in the source
Acinetobacter baumannii [55] = assay: Antibacterial activity against extended-spectrum b-lactamase producing Acinetobacter baumannii S-3 incubated for 16 to 20 hrs by CLSI method; assay type: functional
[56] = biological target: Beta-lactamase (Acinetobacter baumannii) (UniProt Q8RLA6); conditions: NCTC 13304; remark: listed apart in the source
[57] = biological target: Beta-lactamase (Acinetobacter baumannii) (UniProt Q8RLA6); conditions: NCTC 13305; remark: listed apart in the source
Acinetobacter baumannii [58] = assay: Antibacterial activity against extended-spectrum b-lactamase producing Acinetobacter baumannii NCTC 13301 incubated for 16 to 20 hrs by CLSI method; assay type: functional
[59] = biological target: Beta-lactamase (Acinetobacter baumannii) (UniProt Q8RLA6); conditions: NCTC 13301; remark: listed apart in the source
[60] = biological target: Beta-lactamase (Acinetobacter baumannii) (UniProt Q8RLA6); conditions: S-10; remark: listed apart in the source
[61] = biological target: Beta-lactamase (Acinetobacter baumannii) (UniProt Q8RLA6); conditions: NCTC 13305; remark: listed apart in the source
[62] = biological target: Beta-lactamase (Acinetobacter baumannii) (UniProt Q8RLA6); conditions: NCTC 13301; remark: listed apart in the source
[63] = biological target: Beta-lactamase (Acinetobacter baumannii) (UniProt Q8RLA6); conditions: S-15; remark: listed apart in the source
[64] = biological target: Beta-lactamase (Acinetobacter baumannii) (UniProt Q8RLA6); conditions: S-3; remark: listed apart in the source
[65] = biological target: Beta-lactamase (Acinetobacter baumannii) (UniProt Q8RLA6); conditions: NCTC 13305; remark: listed apart in the source
[66] = biological target: Beta-lactamase (Acinetobacter baumannii) (UniProt Q8RLA6); conditions: S-3; remark: listed apart in the source
[67] = biological target: Beta-lactamase (Acinetobacter baumannii) (UniProt Q8RLA6); conditions: NCTC 13305; remark: listed apart in the source
[68] = biological target: Beta-lactamase (Acinetobacter baumannii) (UniProt Q8RLA6); conditions: S-8; remark: listed apart in the source

Chain of Beta-lactamase (Acinetobacter baumannii) (Q8RLA6 as listed by the source): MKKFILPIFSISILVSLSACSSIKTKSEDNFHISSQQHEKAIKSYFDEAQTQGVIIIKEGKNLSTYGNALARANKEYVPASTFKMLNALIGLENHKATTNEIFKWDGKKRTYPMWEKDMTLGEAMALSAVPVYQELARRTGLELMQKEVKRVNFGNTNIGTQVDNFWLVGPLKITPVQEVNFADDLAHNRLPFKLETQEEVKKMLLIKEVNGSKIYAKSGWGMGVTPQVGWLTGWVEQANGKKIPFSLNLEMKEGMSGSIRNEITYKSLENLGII

In the case of NC(=O)[C@@H]1CC[C@@H]2CN1C(=O)N2OS(=O)(=O)O, the MIC [1] is reported as 8 µg/mL (≈ 30.2 µM), the MIC [2] is reported as 8 µg/mL (≈ 30.2 µM) and the MIC [3] is reported as 0.12 µg/mL (≈ 0.452 µM). For the same compound, the MIC [4] was over 32 µg/mL, the MIC [5] was under 0.06 µg/mL and the MIC [6] was 0.5 µg/mL (≈ 1.89 µM). For the same compound, the MIC [7] was 0.12 µg/mL (≈ 0.452 µM), the MIC [8] was 4 µg/mL (≈ 15.1 µM) and the MIC [9] was 4 µg/mL (≈ 15.1 µM). It also gave an MIC [10] of 8 µg/mL (≈ 30.2 µM), an MIC [11] of 4 µg/mL (≈ 15.1 µM) and an MIC [12] of 1 µg/mL (≈ 3.77 µM). The MIC [13] was under 0.06 µg/mL, the MIC [14] was under 0.06 µg/mL and the MIC [15] was under 0.06 µg/mL. For the same compound, the MIC [16] was under 0.03 µg/mL, the MIC (Acinetobacter baumannii [17]) was over 64 µg/mL and the MIC [18] was under 0.03 µg/mL. The MIC [19] was under 0.06 µg/mL, the MIC [20] was 32 µg/mL and the MIC [21] was 32 µg/mL. It also gave an MIC [22] of 8 µg/mL (≈ 30.2 µM), an MIC [23] of over 32 µg/mL and an MIC (Acinetobacter baumannii [24]) of over 64 µg/mL. It also gave an MIC (Acinetobacter baumannii [25]) of over 64 µg/mL, an MIC [26] of under 0.06 µg/mL and an MIC [27] of under 0.06 µg/mL. It also gave an MIC [28] of under 0.06 µg/mL, an MIC [29] of 0.5 µg/mL (≈ 1.89 µM) and an MIC [30] of 0.5 µg/mL (≈ 1.89 µM). For the same compound, the MIC [31] was 1 µg/mL (≈ 3.77 µM), the MIC [32] was 1 µg/mL (≈ 3.77 µM) and the MIC [33] was 4 µg/mL (≈ 15.1 µM). For the same compound, the MIC [34] was under 0.03 µg/mL, the MIC (Acinetobacter baumannii [35]) was over 64 µg/mL and the MIC [36] was under 0.06 µg/mL. For the same compound, the MIC [37] was 0.5 µg/mL (≈ 1.89 µM), the MIC [38] was under 0.06 µg/mL and the MIC [39] was under 0.06 µg/mL. It also gave an MIC [40] of 8 µg/mL (≈ 30.2 µM), an MIC [41] of 32 µg/mL and an MIC [42] of under 0.06 µg/mL. For the same compound, the MIC [43] was 0.5 µg/mL (≈ 1.89 µM), the MIC [44] was 32 µg/mL and the MIC [45] was under 0.06 µg/mL. For the same compound, the MIC [46] was under 0.06 µg/mL, the MIC [47] was 0.5 µg/mL (≈ 1.89 µM) and the MIC [48] was under 0.06 µg/mL. The MIC [49] was 0.5 µg/mL (≈ 1.89 µM), the MIC (Acinetobacter baumannii [50]) was over 64 µg/mL and the MIC [51] was under 0.06 µg/mL. For the same compound, the MIC (Acinetobacter baumannii [52]) was over 64 µg/mL, the MIC [53] was 0.5 µg/mL (≈ 1.89 µM) and the MIC [54] was under 0.06 µg/mL. The MIC (Acinetobacter baumannii [55]) was over 64 µg/mL, the MIC [56] was under 0.06 µg/mL and the MIC [57] was under 0.06 µg/mL. For the same compound, the MIC (Acinetobacter baumannii [58]) was over 64 µg/mL, the MIC [59] was under 0.06 µg/mL and the MIC [60] was under 0.03 µg/mL. For the same compound, the MIC [61] was under 0.06 µg/mL, the MIC [62] was under 0.06 µg/mL and the MIC [63] was 0.5 µg/mL (≈ 1.89 µM). The MIC [64] was 1 µg/mL (≈ 3.77 µM), the MIC [65] was under 0.06 µg/mL and the MIC [66] was 0.5 µg/mL (≈ 1.89 µM). The MIC [67] was under 0.06 µg/mL and the MIC [68] was 8 µg/mL (≈ 30.2 µM).
